Measured values reported in patent publication US8541462B2, “Tetrahydrocarbazole derivatives as ligands of G-protein coupled receptors” (AEterna Zentaris GmbH, priority 2007, dated 2013).
Structures can show the parent of a compound that is named as a salt.

Legend:
plasma testosterone = experiment: Testosterone suppression experiment (plasma testosterone ELISA); format: in vivo, rat; conditions: male Wistar rats, po in Solutol HS15/PEG300 (3:1), samples up to 24 h post-dose
Method: Male Wistar rats weighing 248-296 g (Janvier, France) were used in the present study. Animals were housed in a temperature-controlled room (20-22° C.) and maintained in a 12 h light/12 h dark cycle. Food and water were available ad libitum.
(§1) Rats were anaesthetised with a ketamine (135 mg/kg)/xylazine (10 mg/kg) mixture, and cannulated with silicone tubing via the right jugular vein. Prior to the first blood sampling, animals were connected to a counterbalanced system and tubing, to perform blood sampling in the freely moving rat.
The dosing solutions were prepared immediately before application. […]
The concentrations of testosterone in the rat plasma samples were determined using the Testosterone ELISA (EIA-1559) from DRG Instruments according to the manufacturer's instructions. […] The plate was read within the next 30 min with a Spectramax Plus (Molecular Devices) at 450 nm. The concentration of testosterone in the samples was calculated from the standard curve and is inversely proportional to the optical density measured.
Due to the pulsatile release of testosterone in intact rats, two pre-treatment samples ere collected to establish baseline values prior the administration of the compound. […] The pre-treatment mean value was compared to the testosterone levels measured after application.

[1] = biological target: T1, LHRH receptor (endogenous GnRH receptor of alpha T3-1 cell line) (Mus musculus, UniProt Q01776); experiment: LHRH-receptor binding assay (displacement of [125I] cetrorelix on alpha T3-1 cells); conditions: WO 2006/005484-substance 75 = 100%
T1 construct: alpha T3-1 cell line with endogenous GnRH receptor expression; endogenous in cells; host or cells: alpha T3-1 cells (intact cell suspension)
T1 sequence (Q01776 1-327): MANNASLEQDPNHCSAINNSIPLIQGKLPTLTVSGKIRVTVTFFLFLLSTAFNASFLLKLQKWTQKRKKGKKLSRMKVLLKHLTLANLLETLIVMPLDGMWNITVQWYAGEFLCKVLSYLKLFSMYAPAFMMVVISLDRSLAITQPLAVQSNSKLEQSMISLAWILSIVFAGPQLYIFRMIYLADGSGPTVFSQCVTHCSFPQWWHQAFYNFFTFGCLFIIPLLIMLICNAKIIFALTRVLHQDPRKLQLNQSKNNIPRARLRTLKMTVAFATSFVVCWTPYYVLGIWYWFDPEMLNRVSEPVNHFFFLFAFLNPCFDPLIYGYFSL
Method: For LHRH receptor binding studies, an assay system using alpha T3-1 cell line with endogenous GnRH receptor expression was employed (Windle et al., Mol. Endocrinol. 1990, 4(4): 597-603).
Iodinated cetrorelix was used as a tracer with about 80% of peptide capable of specific receptor association.
For displacement binding assays, the cells were incubated with approximately 200 pM [^125l] cetrorelix and different concentrations of unlabeled test compounds as competitor. The cell suspension in binding medium was layered on top of silicon/paraffin oil, incubated for 60 min at 37° C. and separated by centrifugation. The tips of the tubes containing the cell pellet were cut off, subsequently cell pellet and supernatant were analyzed by gamma-radiation analysis.
The amount of unspecific binding was determined by including unlabeled cetrorelix at 1 μM final concentration and was typically ≦10% of total binding. IC50 values were calculated by using the GraphPad Prism analysis program (GraphPad Software Inc.).

[2] = Metabolic stability testing in liver microsomes; format: in vitro ADME; conditions: mixed-gender human liver microsomes, 1 mg microsomal protein/mL, initial concentration 10 μM, 60 minutes at 37° C.; WO 2006/005484-substance 7 = 100%
Method: Subcellular fractions of different tissues can be prepared easily by ultracentrifugation. Most commonly these are prepared from the liver of animals and human donors to gain information about the potential hepatic clearance of compounds (first-pass elimination of drugs). Human or animal (e.g. dog, mouse, rat) subcellular fraction like liver microsomes, or possibly the fraction called S9 have therefore become a very commonly and widely used as an in vitro model to investigate mainly cytochrome P450 dependent phase I (but also phase II) metabolism that takes place in the liver.
In order to reflect the standard proportion of the enzymes in human and animal livers, liver microsomes are usually pooled from a number of […] of the same sex (or mixed-gender). By supplementing the liver microsomes with relevant cofactors and other components it is possible to investigate and distinguish between CYPs, flavin-containing monooxygenase (FMO) and UDP-glucuronosyltransferase (UGT) activities.
Selected compounds of the invention were tested for their stability in mixed-gender human liver microsomes and compared to pertinent prior art compounds.
Under the test conditions applied (1 mg microsomal protein/mL, initial concentration of 10 μM, and incubation for 60 minutes at 37° C.) the following normalized results were obtained.

[3] = Pharmacokinetic study (oral, cannulated rats, LC/MS of plasma); format: in vivo, rat
Method: Adult male Wistar rats weighing 278-290 g (Jinvier, France) were used in the study. Animals were housed in a temperature-controlled room (20-24° C.) and maintained in a 12 h light/12 h dark cycle. Food and water were available ad libitum.
as §1, with “For surgery, rats” for “Rats”, “(90” for “(135”, “tubing” for “tubing,”
Separate stock solutions (5 mg/ml) of compound 52 of the invention and prior art substance WO 2006/005484—substance 76 were prepared in Solutol HS 15/PEG300 (3:1). The whole process was performed under constant stirring. Half of the volume of the vehicle was added first. After sonication (5 minutes), the second half of the vehicle was added and the vials were again sonicated. All the solutions were clear and free of particles or agglomerates.
Immediately before application, the dosing mixture was prepared by adding equal volumes of the stock solutions to end up with a final concentration of 1 mg/ml for each compound. The mixture was applied orally to rats with an application volume of 5 ml/kg.
Blood samples (200 μl) were taken 1 hour before application and 1, 2, 4, 6, 8, 12 and 24 hours after. They were centrifuged at 650 g for 10 minutes at 4° C. and then the plasma was harvested and kept at −20° C. until LC/MS analysis.

[4] = rat, plasma, male Wistar rats, oral, 5 mg/kg, mixture of both compounds in Solutol HS 15/PEG300 (3:1)

CCC(C)[C@H](NC(=O)Cc1ccccc1F)C(=O)N[C@]1(C(=O)N[C@H](C(=S)NCCN2CCOCC2)C(C)CC)CCc2[nH]c3c(C(F)(F)F)cccc3c2C1 (stereo partly drawn) [compound 54 (TFA salt), (R)-3-{(S)-2-[2-(2-Fluoro-phenyl)-acetylamino]-3-methyl-pentanoylamino}-8-trifluoromethyl-2,3,4,9-tetrahydro-1H-carbazole-3-carboxylic acid [(S)-2-methyl-1-(2-morpholin-4-yl-ethylthiocarbamoyl)-butyl]-amide]
mean plasma testosterone concentration over time (FIG. 2) (plasma testosterone): testosterone suppression | Normalized Affinity [1]: 247%

CCC(C)[C@H](NC(=O)Cc1ccccc1F)C(=O)N[C@]1(C(=O)N[C@H](C(=S)NCC2CCOCC2)C(C)CC)CCc2[nH]c3c(C(F)(F)F)cccc3c2C1 (stereo partly drawn) [Compound 52, (R)-3-{(S)-2-[2-(2-Fluoro-phenyl)-acetylamino]-3-methyl-pentanoylamino}-8-trifluoromethyl-2,3,4,9-tetrahydro-1H-carbazole-3-carboxylic acid {(S)-2-methyl-1-[(tetrahydro-pyran-4-ylmethyl)-thiocarbamoyl]-butyl}-amide]
Normalized microsomal stability [2]: 178% | AUC(0-t) [3, 4]: 306 ng·h/mL | Cmax [3, 4]: 38.2 ng/mL | Tmax [3, 4]: 4 h | higher AUC compared to the pertinent prior art substance (indicative for bioavailability) ([3]; versus WO 2006/005484-substance 76, rats, oral 5 mg/kg): more than 300% | Normalized Affinity [1]: 218%
